Measured values published in patent US12552758B2, “Inhibitors of MLH1 and/or PMS2 for cancer treatment” (NeoPhore Limited, priority 2020, dated 2026).

How the values were obtained:
[1] = target: recombinant N-terminal PMS2 (residues 1-365) (Homo sapiens (Human), UniProt P54278); test: Fluorescence polarisation assay for PMS2; format: binding; settings: FP probe displacement; 10 nM N-terminal PMS2, 5 nM probe compound, read after 1 hour
Description: Fluorescence Polarisation Assay for PMS2
(§1) Test compounds, as 10 mM DMSO stocks, were dispensed into a Black Fluotrac 200 384 well medium binding plate (Greiner Bio-One, item number 781076) using a Labcyte Echo acoustic liquid handler. For single point screening, test compounds were added to wells in columns 1-22 whilst DMSO was added to wells in columns 23 and 24 in order to normalise the plate. For potency determination, serial dilutions of test compounds were added to wells in columns 3-22 and DMSO volume was normalised across the plate.
20 μL assay buffer was added to all wells in columns 1 and 24 (column 24 only for single point screening) using a MultiDrop Combi (ThermoFisher). Plates were centrifuged for 1 minute at 250×g and were incubated at room temperature for 30 minutes prior to the addition of 20 μL of 2×([…]) of 5-((5-(4-((2-(2,4-dihydroxy-5-isopropylbenzoyl)isoindolin-5-yl)methyl)piperazin-1-yl)pentyl)carbamoyl)-2-(6-(dimethylamino)-3-(dimethyliminio)-3H-xanthen-9-yl)benzoate (referred to hereinafter as “probe compound”) in assay buffer (prepared from a 100 μM DMSO stock) with a MultiDrop Combi (ThermoFisher). The final concentration of N-terminal PMS2 was 10 nM and the final concentration of probe compound was 5 nM.
(§2) Compound plates were centrifuged for 1 minute at 250×g for 1 minute and were incubated at room temperature for 1 hour before being read on a PheraStar FSX (fitted with 384-well aperture spoon and 540 590 590 FP optic module). The gain and focus were adjusted before each plate was read so that the polarisation of a no enzyme control (column 24) was equal to 35 mP. Data were normalised against the no inhibitor controls (column 23) and no enzyme controls (column 24).

[2] = target: recombinant N-terminal MLH1 (residues 15-340) (Homo sapiens (Human), UniProt P40692); test: Fluorescence polarisation assay for MLH1 (protocol for all Examples except Examples 64, 76, 90 and 95); format: binding; settings: FP probe displacement; 100 nM N-terminal MLH1, 5 nM probe compound, read after 15 minutes; all Examples except 64, 76, 90 and 95
Description: Fluorescence Polarisation Assay for MLH1 (Protocol for all Examples Except Examples 64, 76, 90 and 95)
as §1
20 μL assay buffer was added to all wells in columns 1 and 24 (column 24 only for single point screening) using a MultiDrop Combi (ThermoFisher). Plates were centrifuged for 1 minute at 250×g and were incubated at room temperature for 30 minutes prior to the addition of 20 μL of 2×(10 nM) of 5-((5-(4-((2-(2,4-dihydroxy-5-isopropylbenzoyl)isoindolin-5-yl)methyl)piperazin-1-yl)pentyl)carbamoyl)-2-(6-(dimethylamino)-3-(dimethyliminio)-3H-xanthen-9-yl)benzoate (referred to hereinafter as “probe compound”) in assay buffer (prepared from a 100 μM DMSO stock) with a MultiDrop Combi (ThermoFisher). The final concentration of N-terminal MLH1 was 100 nM and the final concentration of probe compound was 5 nM.
as §2, with “15 minutes” for “1 hour”

recombinant N-terminal PMS2 (residues 1-365), sequence (P54278 1-365): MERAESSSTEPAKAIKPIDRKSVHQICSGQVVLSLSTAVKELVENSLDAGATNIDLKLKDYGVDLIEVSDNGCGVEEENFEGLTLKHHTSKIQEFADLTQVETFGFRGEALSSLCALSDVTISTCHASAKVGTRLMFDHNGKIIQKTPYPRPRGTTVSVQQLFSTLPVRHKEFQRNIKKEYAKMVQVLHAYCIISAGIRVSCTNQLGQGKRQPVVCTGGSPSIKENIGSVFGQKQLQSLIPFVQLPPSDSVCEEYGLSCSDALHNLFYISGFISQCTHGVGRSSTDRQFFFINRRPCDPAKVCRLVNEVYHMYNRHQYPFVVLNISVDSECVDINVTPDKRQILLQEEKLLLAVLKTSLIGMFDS
recombinant N-terminal MLH1 (residues 15-340), sequence (P40692 15-340): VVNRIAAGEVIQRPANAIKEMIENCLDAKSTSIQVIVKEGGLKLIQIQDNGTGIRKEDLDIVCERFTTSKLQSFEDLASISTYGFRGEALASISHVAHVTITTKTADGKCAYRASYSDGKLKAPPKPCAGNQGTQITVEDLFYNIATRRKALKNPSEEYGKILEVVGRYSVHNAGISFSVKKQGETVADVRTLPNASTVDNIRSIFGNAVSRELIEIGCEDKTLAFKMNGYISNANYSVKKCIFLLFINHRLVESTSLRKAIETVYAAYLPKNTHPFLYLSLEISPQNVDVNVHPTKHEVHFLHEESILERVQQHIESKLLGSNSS

Row | SMILES | IC50 [1] [µM] | IC50 [2] [µM]
1 | CC(Oc1cc(O)cc(O)c1C(=O)N1CCCC1)c1ccccc1 (single isomer, unassigned) [Example 13] | > 10 | > 10
2 | CC(Oc1cc(O)cc(O)c1C(=O)N1CCCC1)c1ccccc1 (single isomer, unassigned) [Example 14] | > 10 | > 10
3 | O=C(c1c(O)cc(O)cc1OCc1ncccn1)N1CCCC1 [Example 1, [2,4-dihydroxy-6-(pyrimidin-2-ylmethoxy)phenyl]-pyrrolidin-1-yl-methanone] | > 10 | > 10
4 | O=C(c1c(O)cc(O)cc1OC1CCCC1)N1CCCC1 [Example 2, (2-(cyclopentyloxy)-4,6-dihydroxyphenyl)(pyrrolidin-1-yl)methanone] | > 10 | > 10
5 | O=C(c1c(O)cc(O)cc1OCc1ccccc1)N1CCCC1 [Example 3, (2-benzyloxy-4,6-dihydroxy-phenyl)-pyrrolidin-1-yl-methanone] | > 10 | > 10
6 | O=C(c1c(O)cc(O)cc1OCc1ccccc1)N1Cc2ccccc2C1 [Example 4, (2-benzyloxy-4,6-dihydroxy-phenyl)-isoindolin-2-yl-methanone] | < 1 | < 1
7 | O=C(c1c(O)cc(O)cc1OCc1ccccc1)N1CCCCC1 [Example 5, (2-benzyloxy-4,6-dihydroxy-phenyl)-(1-piperidyl)methanone] | > 10 | > 10
8 | O=C(c1c(O)cc(O)cc1OCc1ccccc1)N1CC[C@H](O)C1 [Example 6, (2-benzyloxy-4,6-dihydroxy-phenyl)-[(3S)-3-hydroxypyrrolidin-1-yl]methanone] | > 10 | > 10
9 | O=C(c1c(O)cc(O)cc1OCc1ccccc1)N1CC[C@@H](O)C1 [Example 7, (2-benzyloxy-4,6-dihydroxy-phenyl)-[(3R)-3-hydroxypyrrolidin-1-yl]methanone] | > 10 | > 10
10 | O=C(c1c(O)cc(O)cc1OCc1ccccc1)N1CCC[C@@H](O)C1 [Example 8, (2-benzyloxy-4,6-dihydroxy-phenyl)-[(3R)-3-hydroxy-1-piperidyl]methanone] |  | > 10
11 | O=C(c1c(O)cc(O)cc1OCc1ccccc1)N1CCC[C@H](O)C1 [Example 9, (2-benzyloxy-4,6-dihydroxy-phenyl)-[(3S)-3-hydroxy-1-piperidyl]methanone] |  | > 10
12 | Cc1c(O)cc(O)c(C(=O)N2CCCC2)c1OCc1ccccc1 [Example 10, (2-benzyloxy-4,6-dihydroxy-3-methyl-phenyl)-pyrrolidin-1-yl-methanone] | 1 to 10 | > 10
13 | CCc1c(O)cc(O)c(C(=O)N2CCCC2)c1OCc1ccccc1 [Example 11, (2-benzyloxy-3-ethyl-4,6-dihydroxy-phenyl)-pyrrolidin-1-yl-methanone] | > 10 | > 10
14 | O=C(c1c(O)cc(O)cc1OCc1ccccn1)N1CCCC1 [Example 12, [2,4-dihydroxy-6-(2-pyridylmethoxy)phenyl]-pyrrolidin-1-yl-methanone] | > 10 | > 10
15 | O=C(c1c(O)cc(O)cc1OCc1ccc(F)cc1)N1CCCC1 [Example 15, [2-[(4-fluorophenyl)methoxy]-4,6-dihydroxy-phenyl]-pyrrolidin-1-yl-methanone] | > 10 | > 10
16 | COc1ccc(COc2cc(O)cc(O)c2C(=O)N2CCCC2)cc1 [Example 16, [2,4-dihydroxy-6-[(4-methoxyphenyl)methoxy]phenyl]-pyrrolidin-1-yl-methanone] | > 10 | > 10
17 | Cc1cccc(COc2cc(O)cc(O)c2C(=O)N2CCCC2)c1 [Example 17, [2,4-dihydroxy-6-(m-tolylmethoxy)phenyl]-pyrrolidin-1-yl-methanone] |  | > 10

Row | SMILES | IC50 [1] [µM] | IC50 [2] [µM]
18 | O=C(c1c(O)cc(O)cc1OCc1ccccc1)N1Cc2cccnc2C1 [Example 18, (2-benzyloxy-4,6-dihydroxy-phenyl)-(5,7-dihydropyrrolo[3,4-b]pyridin-6-yl)methanone] | 1 to 10 | 1 to 10
19 | COc1cccc2c1CN(C(=O)c1c(O)cc(O)cc1OCc1ccccc1)C2 [Example 19, (2-benzyloxy-4,6-dihydroxy-phenyl)-(4-methoxyisoindolin-2-yl)methanone] | < 1 | < 1
20 | O=C(c1c(O)cc(O)cc1OCc1ccncn1)N1CCCC1 [Example 20, [2,4-dihydroxy-6-(pyrimidin-4-ylmethoxy)phenyl]-pyrrolidin-1-yl-methanone] | > 10 | > 10
21 | O=C(c1c(O)cc(O)cc1OCc1cc[nH]n1)N1CCCC1 [Example 21, (2-((1H-pyrazol-3-yl)methoxy)-4,6-dihydroxyphenyl)(pyrrolidin-1-yl)methanone] | > 10 | > 10
22 | O=C(c1c(O)cc(O)cc1OCc1c[nH]nn1)N1CCCC1 [Example 22, [2,4-dihydroxy-6-(1H-triazol-4-ylmethoxy)phenyl]-pyrrolidin-1-yl-methanone] | > 10 | > 10
23 | O=C(c1c(O)cc(O)cc1OCc1ccccc1)N1Cc2ccc(Br)cc2C1 [Example 23, (2-benzyloxy-4,6-dihydroxy-phenyl)-(5-bromoisoindolin-2-yl)methanone] | < 1 | < 1
24 | COC(=O)c1ccc2c(c1)CN(C(=O)c1c(O)cc(O)cc1OCc1ccccc1)C2 [Example 24, methyl 2-(2-benzyloxy-4,6-dihydroxy-benzoyl)isoindoline-5-carboxylate] | < 1 | < 1
25 | COc1ccc2c(c1)CN(C(=O)c1c(O)cc(O)cc1OCc1ccccc1)C2 [Example 25, (2-benzyloxy-4,6-dihydroxy-phenyl)-(5-methoxyisoindolin-2-yl)methanone] | < 1 | < 1
26 | COc1cc2c(cc1OC)CN(C(=O)c1c(O)cc(O)cc1OCc1ccccc1)C2 [Example 26, (2-benzyloxy-4,6-dihydroxy-phenyl)-(5,6-dimethoxyisoindolin-2-yl)methanone] | < 1 | 1 to 10
27 | CC(Oc1cc(O)cc(O)c1C(=O)N1Cc2ccccc2C1)c1ccccc1 (stereo not drawn) [Example 27, [2,4-dihydroxy-6-(1-phenylethoxy)phenyl]-isoindolin-2-yl-methanone] | < 1 | 1 to 10
28 | COc1ccc2c(c1)CN(C(=O)c1c(O)cc(O)cc1OC(C)c1ccccc1)C2 (stereo not drawn) [Example 28, [2,4-dihydroxy-6-(1-phenylethoxy)phenyl]-(5-methoxyisoindolin-2-yl)methanone] | < 1 | 1 to 10
29 | COc1cc2c(cc1OC)CN(C(=O)c1c(O)cc(O)cc1OC(C)c1ccccc1)C2 (stereo not drawn) [Example 29, [2,4-dihydroxy-6-(1-phenylethoxy)phenyl]-(5,6-dimethoxyisoindolin-2-yl)methanone] | < 1 | 1 to 10
30 | Cc1cccc(COc2c(C)c(O)cc(O)c2C(=O)N2Cc3cccnc3C2)c1 [Example 31, 5,7-dihydropyrrolo[3,4-b]pyridin-6-yl-[4,6-dihydroxy-3-methyl-2-(m-tolylmethoxy)phenyl]methanone] | < 1 | > 10
31 | Cc1c(O)cc(O)c(C(=O)N2CCc3ccccc3C2)c1OCc1ccccn1 [Example 45, 3,4-dihydro-1H-isoquinolin-2-yl-[4,6-dihydroxy-3-methyl-2-(2-pyridylmethoxy)phenyl]methanone] |  | > 10
32 | COc1ccc2c(c1)CN(C(=O)c1c(O)cc(O)c(C)c1OCc1ccccn1)CC2 [Example 46, [4,6-dihydroxy-3-methyl-2-(2-pyridylmethoxy)phenyl]-(7-methoxy-3,4-dihydro-1H-isoquinolin-2-yl)methanone] |  | > 10
33 | Cc1c(O)cc(O)c(C(=O)N2CCOc3ccccc32)c1OCc1ccccc1 [Example 67, (2-(Benzyloxy)-4,6-dihydroxy-3-methylphenyl)(2,3-dihydro-4H-benzo[b][1,4]oxazin-4-yl)methanone] |  | > 10
